Drawing on patent publication US11478474B2, “2-(3′-(hydroxymethyl)-1-methyl-5-((5-(2-methyl-4-(oxetan-3-yl)piperazin-1-yl)pyridin-2-yl)amino)-6-oxo-1,6-dihydro-[3,4′-bipyridin]-2′-yl)-7,7-dimethyl-7,8-dihydro-2H-cyclopenta[4,5]pyrrolo[1,2-a]pyrazin-1(6H)-one as a BTK inhibitor” (HUTCHISON MEDIPHARMA LIMITED, priority 2020, dated 2022), this text covers IC50 for 40 molecules.

SMILES strings stand for the structures.

The target of experiment [1] is BTK recombinant protein (Homo sapiens (Human), UniProt Q06187). Kind of experiment: Determination of biochemical BTK (Z'-LYTE kinase assay). An outline of the steps: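 Human BTK recombinant kinase (3.32 nM final) was preincubated with compound for 30 min at 4 °C. Reaction ran 1 h at room temperature with Tyr01 FRET peptide (2 μM) and ATP (32 μM); development protease then added. Coumarin 445 nm/fluorescein 520 nm emission ratio (400 nm excitation) gave inhibition across 8 concentrations, 3000–1.37 nM.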

The target of experiment [2] is phosphorylated BTK in Ramos cells (Homo sapiens (Human), UniProt Q06187). Kind of experiment: Determination of phosphorylated BTK in Ramos cells (BTK phospho-Y223 HTRF). It is filed as cell-based. Conditions: anti-human IgM + hydrogen peroxide stimulation. A digest of the protocol:
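Ramos cells starved 2 h in 1% FBS, then treated 1 h with compound (0.00018–3.0 μM, 0.3% DMSO). They were then stimulated 10 min at 37° C. with anti-human IgM (10 μg/mL) plus H2O2 (3.3 mM). Lysates read by BTK phospho-Y223 HTRF (665/615 nm ratio); IC50 fitted from inhibition normalized to stimulated and unstimulated controls.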

Chain of BTK recombinant protein (Q06187 whole entry): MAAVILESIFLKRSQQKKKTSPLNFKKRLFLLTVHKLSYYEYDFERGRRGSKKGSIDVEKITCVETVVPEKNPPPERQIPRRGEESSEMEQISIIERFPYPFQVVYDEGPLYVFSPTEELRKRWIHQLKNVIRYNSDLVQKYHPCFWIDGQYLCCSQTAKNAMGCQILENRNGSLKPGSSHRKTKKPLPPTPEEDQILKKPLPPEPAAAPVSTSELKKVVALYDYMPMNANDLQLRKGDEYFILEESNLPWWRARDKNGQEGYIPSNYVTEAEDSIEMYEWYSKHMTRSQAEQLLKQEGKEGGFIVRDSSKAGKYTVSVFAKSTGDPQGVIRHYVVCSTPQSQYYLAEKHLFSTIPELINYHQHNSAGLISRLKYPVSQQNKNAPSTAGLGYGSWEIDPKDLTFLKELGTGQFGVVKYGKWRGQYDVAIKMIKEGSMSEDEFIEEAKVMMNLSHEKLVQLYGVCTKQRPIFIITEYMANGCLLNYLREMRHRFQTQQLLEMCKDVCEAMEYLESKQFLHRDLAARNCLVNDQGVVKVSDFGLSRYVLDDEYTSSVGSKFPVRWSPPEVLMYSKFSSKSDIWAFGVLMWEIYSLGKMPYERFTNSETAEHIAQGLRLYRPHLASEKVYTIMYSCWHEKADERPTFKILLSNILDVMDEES
Chain of phosphorylated BTK in Ramos cells (Q06187 whole entry): as above

As for `CCn1cc(-c2ccnc(-n3ncn4c5c(cc4c3=O)CC(C)(C)C5)c2CO)cc(Nc2ccc(N3C[C@@H](C)N(C4COC4)C[C@@H]3C)cn2)c1=O` [Compound 210], the half-maximal inhibitory concentration (IC50) turned out to be 21 nM in experiment [1] and 19 nM in experiment [2].
With `COCCN1CCn2nc(Nc3cc(-c4ccnc(-n5ccn6c(c(F)c7ccccc76)c5=O)c4CO)cn(C)c3=O)cc2C1` [Compound 177], the values for the concentration for half-maximal inhibition (IC50) in experiment [1] and in experiment [2] were 6 nM and 21 nM, respectively.
The matching figures for `CCN1CCn2nc(Nc3cc(-c4ccnc(-n5ncn6c7c(cc6c5=O)CC(C)(C)C7)c4CO)cn(C)c3=O)cc2C1` [Compound 165]: 4 nM and 31 nM.
For `C[C@H]1CN(C2COC2)CCN1c1ccc(Nc2cc(-c3ccnc(-n4ccn5c(cc6c(F)cccc65)c4=O)c3CO)cn(C)c2=O)nc1` [Compound 53], the IC50 in experiment [1] is 33 nM; in experiment [2], 25 nM.
The corresponding values for `Cn1cc(Nc2cc(-c3ccnc(-n4ccn5c6c(cc5c4=O)CCC6)c3CO)cn(C)c2=O)nn1` [Compound 73] are 216 nM and 116 nM.
With `C[C@@H]1CN(c2ccc(Nc3cc(-c4ccnc(-n5ccn6c7c(c(F)c6c5=O)CCCC7)c4CO)cn(C)c3=O)nc2)[C@@H](C)CN1C1COC1` [Compound 218], the results for the IC50 in experiment [1] and in experiment [2] were 6 nM and 12 nM, respectively.
On to `Cn1cc(-c2ccnc(-n3ccn4c5c(cc4c3=O)CCC5)c2CO)cc(Nc2cc3n(n2)CCN(C2COC2)C3)c1=O` [Compound 134], for which the IC50 in experiment [1] is 59 nM; in experiment [2], 54 nM.
The matching figures for `Cn1cc(-c2ccnc(-n3ccn4c5c(cc4c3=O)CC(C)(C)C5)c2CO)cc(Nc2ccc(N3CCN(C4COC4)CC3(C)C)cn2)c1=O` [Compound 95]: 10 nM and 3 nM.
Consider `CCn1cc(Nc2cc(-c3ccnc(-n4ccn5c6c(c(F)c5c4=O)CCCC6)c3CO)cn(C)c2=O)cn1` [Compound 180], for which the figures for the IC50 in experiment [1] and in experiment [2] were 16 nM and 84 nM, respectively.
As for `Cn1cc(-c2ccnc(-n3ccn4c5c(cc4c3=O)CCC5)c2CO)cc(Nc2cc3n(n2)CCN(C#N)C3)c1=O` [Compound 142], the IC50 in experiment [1] turned out to be 51 nM; in experiment [2] it was 60 nM.
With `CCn1cc(Nc2cc(-c3ccnc(-n4ncn5c6c(cc5c4=O)CC(C)(C)C6)c3CO)cn3ncnc23)nn1` [Compound 208], the IC50 in experiment [1] and in experiment [2] was 4 nM each time.
Consider `CN(c1ccc(Nc2cc(-c3ccnc(-n4ncn5c6c(cc5c4=O)CC(C)(C)C6)c3CO)cn(C)c2=O)nc1)C1COC1` [Compound 106], for which the IC50 in experiment [1] came out at 12 nM; in experiment [2], 1 nM.
The matching figures for `Cn1nc(-c2ccnc(-n3ccn4c5c(cc4c3=O)CC(C)(C)C5)c2CO)cc(Nc2cn(CC(F)(F)F)nn2)c1=O` [Compound 33]: 25 nM and 26 nM.
The corresponding values for `C[C@@H]1c2cc(Nc3cc(-c4ccnc(-n5ccn6c7c(cc6c5=O)CC(C)(C)C7)c4CO)cn(C)c3=O)nn2CCN1C1COC1` [Compound 137] are 6 nM and 4 nM.
The matching figures for `Cn1cc(-c2ccnc(-n3ccn4c5c(cc4c3=O)CC(C)(C)C5)c2CO)cc(Nc2ccc(N3CCC4(CC3)COC4)cn2)c1=O` [Compound 229]: 12 nM and 10 nM.
As for `Cn1cc(Nc2cc(-c3ccnc(-n4ccn5c6c(cc5c4=O)CC(C)(C)C6)c3CO)nn(C)c2=O)nn1` [Compound 29], the IC50 in experiment [1] came out at 8 nM; in experiment [2], 30 nM.
The corresponding values for `CC1CCc2c(cc3c(=O)n(-c4nccc(-c5cc(Nc6ccc(N7CCN(C8COC8)C[C@@H]7C)cn6)c(=O)n(C)c5)c4CO)ccn23)C1` (mixture of isomers) [Compound 187] are 14 nM and 28 nM.
The matching figures for `CCn1cc(-c2ccnc(-n3ccn4c5c(cc4c3=O)CC(C)(C)C5)c2CO)cc(Nc2ccc(N3CCN(C4COC4)C[C@@H]3C)cn2)c1=O` [Compound 202]: 8 nM and 17 nM.
The corresponding values for `Cn1cc(-c2ccnc(-n3ccn4c5c(cc4c3=O)CC(C)(C)C5)c2CO)cc(Nc2ccc(N3CCN(C4COC4)CC34CC4)cn2)c1=O` [Compound 231] are 5 nM and 4 nM.
As to `[2H]C(O)c1c(-c2cc(Nc3ccc(N4CCN(C5COC5)C[C@@H]4C)cn3)c(=O)n(C)c2)ccnc1-n1ccn2c3c(cc2c1=O)CC(C)(C)C3` (some centres unmarked) [Compound 100], the IC50 worked out at 5 nM in experiment [1] and 2 nM in experiment [2].
With `C[C@H]1CN2CCOCC2CN1c1ccc(Nc2cc(-c3ccnc(-n4ccn5c6c(cc5c4=O)CC(C)(C)C6)c3CO)cn(C)c2=O)nc1` (mixture of isomers) [Compound 236], the IC50 in experiment [1] is 24 nM; in experiment [2] it was 4 nM.
The matching figures for `Cn1cc(-c2ccnc(-n3ccn4c5c(c(F)c4c3=O)CCCC5)c2CO)cc(Nc2cc3n(n2)CCOC3)c1=O` [Compound 176]: 3 nM and 16 nM.
The matching figures for `[2H]C([2H])([2H])n1cc(-c2ccnc(-n3ccn4c5c(cc4c3=O)CC(C)(C)C5)c2CO)cc(Nc2ccc(N3CCN(C4COC4)C[C@@H]3C)cn2)c1=O` [Compound 39]: 24 nM and 3 nM.
The corresponding values for `Cc1nn(-c2nccc(-c3cc(Nc4ccc(N5CCN(C6COC6)C[C@@H]5C)cn4)c(=O)n(C)c3)c2CO)c(=O)c2cc3c(n12)CC(C)(C)C3` [Compound 104] are 10 nM and 6 nM.
As for `COCCN(c1ccc(Nc2cc(-c3ccnc(-n4ccn5c6c(cc5c4=O)CC(C)(C)C6)c3CO)cn(C)c2=O)nc1)C(C)C` [Compound 51], the figures for the IC50 in experiment [1] and in experiment [2] were 10 nM and 8 nM, respectively.
The matching figures for `C[C@H]1CN(C#N)CCN1c1ccc(Nc2cc(-c3ccnc(-n4ccn5c6c(cc5c4=O)CC(C)(C)C6)c3CO)cn(C)c2=O)nc1` [Compound 108]: 7 nM and 1 nM.
`Cn1cc(-c2ccnc(-n3ccn4c5c(cc4c3=O)CC(C)(C)C5)c2CO)cc(Nc2ccc(N3CCN(C4COC4)CC3)nn2)c1=O` [Compound 222]: the IC50 in experiment [1] and in experiment [2] was 8 nM in each case.
Consider `C[C@H]1CN(C2COC2)CCN1c1ccc(Nc2cc(-c3ccnc(-n4ncn5c6c(cc5c4=O)CCCC6)c3CO)cn(C)c2=O)nc1` [Compound 157], for which the half-inhibitory concentration (IC50) is 16 nM in experiment [1] and 25 nM in experiment [2].
`COCCN1CCn2nc(Nc3cc(-c4ccnc(-n5ncn6c7c(cc6c5=O)CCCC7)c4CO)cn(C)c3=O)cc2C1` [Compound 163]: the IC50 was 8 nM in experiment [1] and 34 nM in experiment [2].
The matching figures for `CCN(CCOC)c1ccc(Nc2cc(-c3ccnc(-n4ccn5c6c(cc5c4=O)CC(C)(C)C6)c3CO)cn(C)c2=O)nc1` [Compound 1, 2-(5-((5-(ethyl (2-methoxyethyl)amino)pyridin-2-yl)amino)-3′-(hydroxymethyl)-1-methyl-6-oxo-1,6-dihydro-[3,4′-bispyridin]-2′-yl)-7,7-dimethyl-7,8-dihydro-2H-cyclopenta[4,5]pyrrolo[1,2-a]pyrazin-1(6H)-one]: 35 nM and 5 nM.
For the molecule `C[C@@H]1CN(C2COC2)CCN1c1ccc(Nc2cc(-c3ccnc(-n4ccn5c6c(cc5c4=O)CC(C)(C)C6)c3CO)cn(C)c2=O)nc1` [Compound 80], the figures for the IC50 in experiment [1] and in experiment [2] were 5 nM and 2 nM, respectively.
In the case of `C[C@H]1COCCN1c1ccc(Nc2cc(-c3ccnc(-n4ccn5c6c(cc5c4=O)CC(C)(C)C6)c3CO)cn(C)c2=O)nc1` [Compound 10], the IC50 in experiment [1] was 18 nM; in experiment [2], 10 nM.
The matching figures for `COc1ccc(Nc2cc(-c3ccnc(-n4ccn5c6c(cc5c4=O)CC(C)(C)C6)c3CO)cn(C)c2=O)nc1` [Compound 126]: 26 nM and 20 nM.
As to `CC(C)n1cc(Nc2cc(-c3ccnc(-n4ccn5c6c(cc5c4=O)CC(C)(C)C6)c3CO)nn(C)c2=O)nn1` [Compound 7], the IC50 in experiment [1] is below 1 nM; in experiment [2] it was 3 nM.
On to `C[C@H]1CN(C2COC2)CCN1c1ccc(Nc2cc(-c3ccnc(-n4ccn5c6c(cc5c4=O)CC(C)(C)C6)c3CO)cn(C)c2=O)nn1` [Compound 204], for which the figures for the IC50 in experiment [1] and in experiment [2] were 11 nM and 7 nM, respectively.
For the molecule `Cn1nc(Nc2cc(-c3ccnc(-n4ccn5c6c(cc5c4=O)CC(C)(C)C6)c3CO)cn(C)c2=O)cc1C(=O)N1CCOCC1` [Compound 99], the IC50 in experiment [1] worked out at 6 nM; in experiment [2], 4 nM.
With `CC(C)n1cc(Nc2cc(-c3ccnc(-n4ccn5c6c(cc5c4=O)CC(C)(C)C6)c3CO)cn(C)c2=O)cn1` [Compound 173], the values for the IC50 in experiment [1] and in experiment [2] were 80 nM and 28 nM, respectively.
In the case of `Cn1cc(-c2ccnc(-n3ncn4c5c(cc4c3=O)CC(C)(C)C5)c2CO)cc(Nc2cc3n(n2)CCOC3)c1=O` [Compound 156], the results for the IC50 in experiment [1] and in experiment [2] were 6 nM and 12 nM, respectively.
With `COCCN1CCn2nc(Nc3cc(-c4ccnc(-n5nc(C)n6c7c(cc6c5=O)CC(C)(C)C7)c4CO)cn(C)c3=O)cc2C1C` (racemic) [Compound 121], the concentration for half-maximal inhibition (IC50) amounted to 23 nM in experiment [1] and 21 nM in experiment [2].
The corresponding values for `CC(=O)N1CCn2nc(Nc3cc(-c4ccnc(-n5ccn6c7c(cc6c5=O)CC(C)(C)C7)c4CO)cn(C)c3=O)cc2C1` [Compound 68, 2-(5-((5-acetyl-4,5,6,7-tetrahydropyrazolo[1,5-a]pyrazin-2-yl)amino)-3′-(hydroxymethyl)-1-methyl-6-oxo-1,6-dihydro-[3,4′-bispyridin]-2′-yl)-7,7-dimethyl-7,8-dihydro-2H-cyclopenta[4,5]pyrrolo[1,2-a]pyrazin-1(6H)-one] are 5 nM and 2 nM.
